# Results from patent US10010545B1, “Antibiotic compositions and methods of use” (University of South Florida, priority 2013, dated 2018).
# How the values were obtained:
# [1] = system: Enterococcus faecium; assay: Growth testing against ESKAPE pathogens: Enterococcus faecium; assay type: cell-based; design: key: Growth; X: No Growth
# Experimental: (§1) Six analogs (FIG. 2) of the ciprofloxacin-N thiolated β-lactam were successfully synthesized. All these compounds were then tested against ESKAPE pathogens for bioactivity. The ESKAPE pathogens are a collection of six deadly superbugs, Enterococcus faecium, Staphylococcus aureus, Klebsiella pneumoniae, Acinetobacter baumannii, Pseudomonas aeruginosa, and Enterobacter species. […] G denotes growth and X denotes no growth in the tables.
# [2] = system: Staphylococcus aureus; assay: Growth testing against ESKAPE pathogens: Staphylococcus aureus; assay type: cell-based; design: key to Activity against Staphylococcus aureus (growth observed): Growth; X: No Growth
# Experimental: as §1
# [3] = system: Klebesiella pneumonia; assay: Growth testing against ESKAPE pathogens: Klebesiella pneumonia; assay type: cell-based, Klebsiella pneumoniae; design: key: Growth; X: No Growth
# Experimental: as §1
# [4] = system: Acinetobacter baumannii; assay: Growth testing against ESKAPE pathogens: Acinetobacter baumannii; assay type: cell-based; design: key: Growth; X: No Growth
# Experimental: as §1
# [5] = system: Pseudomonas aeruginosa; assay: Growth testing against ESKAPE pathogens: Pseudomonas aeruginosa; assay type: cell-based; design: key: Growth; X: No Growth
# Experimental: as §1
smiles,measurement,setting,value
CCCCCC(=O)N1CCN(c2cc3c(cc2F)c(=O)c(C(=O)OC2C(=O)N(SC(C)CC)C2c2ccccc2Cl)cn3C2CC2)CC1 (stereo not drawn) [Lactam 129],Activity against Enterococcus faecium (growth observed),[1]; 1 μg/ml,G
same,Activity against Enterococcus faecium (growth observed),[1]; 2 μg/ml,G
same,Activity against Enterococcus faecium (growth observed),[1]; 3 μg/ml,G
same,Activity against Enterococcus faecium (growth observed),[1]; 4 μg/ml,G
same,Activity against Enterococcus faecium (growth observed),[1]; 5 μg/ml,G
same,Activity against Enterococcus faecium (growth observed),[1]; 6 μg/ml,G
same,Activity against Enterococcus faecium (growth observed),[1]; 7 μg/ml,G
same,Activity against Enterococcus faecium (growth observed),[1]; 8 μg/ml,G
same,Activity against Enterococcus faecium (growth observed),[1]; 9 μg/ml,G
same,Activity against Enterococcus faecium (growth observed),[1]; 10 μg/ml,G
same,Activity against Enterococcus faecium (growth observed),[1]; 25 μg/ml,G
same,Activity against Staphylococcus aureus (growth observed),[2]; 1 μg/ml,G
same,Activity against Staphylococcus aureus (growth observed),[2]; 2 μg/ml,G
same,Activity against Staphylococcus aureus (growth observed),[2]; 3 μg/ml,G
same,Activity against Staphylococcus aureus (growth observed),[2]; 4 μg/ml,G
same,Activity against Staphylococcus aureus (growth observed),[2]; 5 μg/ml,G
same,Activity against Staphylococcus aureus (growth observed),[2]; 6 μg/ml,G
same,Activity against Staphylococcus aureus (growth observed),[2]; 7 μg/ml,G
same,Activity against Staphylococcus aureus (growth observed),[2]; 8 μg/ml,G
same,Activity against Staphylococcus aureus (growth observed),[2]; 9 μg/ml,G
same,Activity against Staphylococcus aureus (growth observed),[2]; 10 μg/ml,G
same,Activity against Staphylococcus aureus (growth observed),[2]; 25 μg/ml,G
same,Activity against Klebesiella pneumonia (growth observed),[3]; 1 μg/ml,G
same,Activity against Klebesiella pneumonia (growth observed),[3]; 2 μg/ml,G
same,Activity against Klebesiella pneumonia (growth observed),[3]; 3 μg/ml,G
same,Activity against Klebesiella pneumonia (growth observed),[3]; 4 μg/ml,G
same,Activity against Klebesiella pneumonia (growth observed),[3]; 5 μg/ml,G
same,Activity against Klebesiella pneumonia (growth observed),[3]; 6 μg/ml,G
same,Activity against Klebesiella pneumonia (growth observed),[3]; 7 μg/ml,G
same,Activity against Klebesiella pneumonia (growth observed),[3]; 8 μg/ml,G
same,Activity against Klebesiella pneumonia (growth observed),[3]; 9 μg/ml,G
same,Activity against Klebesiella pneumonia (growth observed),[3]; 10 μg/ml,G
same,Activity against Klebesiella pneumonia (growth observed),[3]; 25 μg/ml,G
same,Activity against Acinetobacter baumannii (growth observed),[4]; 1 μg/ml,G
same,Activity against Acinetobacter baumannii (growth observed),[4]; 2 μg/ml,G
same,Activity against Acinetobacter baumannii (growth observed),[4]; 3 μg/ml,G
same,Activity against Acinetobacter baumannii (growth observed),[4]; 4 μg/ml,G
same,Activity against Acinetobacter baumannii (growth observed),[4]; 5 μg/ml,G
same,Activity against Acinetobacter baumannii (growth observed),[4]; 6 μg/ml,G
same,Activity against Acinetobacter baumannii (growth observed),[4]; 7 μg/ml,G
same,Activity against Acinetobacter baumannii (growth observed),[4]; 8 μg/ml,G
same,Activity against Acinetobacter baumannii (growth observed),[4]; 9 μg/ml,G
same,Activity against Acinetobacter baumannii (growth observed),[4]; 10 μg/ml,G
same,Activity against Acinetobacter baumannii (growth observed),[4]; 25 μg/ml,G
same,Activity against Pseudomonas aeruginosa (growth observed),[5]; 1 μg/ml,G
same,Activity against Pseudomonas aeruginosa (growth observed),[5]; 2 μg/ml,G
same,Activity against Pseudomonas aeruginosa (growth observed),[5]; 3 μg/ml,G
same,Activity against Pseudomonas aeruginosa (growth observed),[5]; 4 μg/ml,G
same,Activity against Pseudomonas aeruginosa (growth observed),[5]; 5 μg/ml,G
same,Activity against Pseudomonas aeruginosa (growth observed),[5]; 6 μg/ml,G
same,Activity against Pseudomonas aeruginosa (growth observed),[5]; 7 μg/ml,G
same,Activity against Pseudomonas aeruginosa (growth observed),[5]; 8 μg/ml,G
same,Activity against Pseudomonas aeruginosa (growth observed),[5]; 9 μg/ml,G
same,Activity against Pseudomonas aeruginosa (growth observed),[5]; 10 μg/ml,G
same,Activity against Pseudomonas aeruginosa (growth observed),[5]; 25 μg/ml,G
CCCCCCC(=O)N1CCN(c2cc3c(cc2F)c(=O)c(C(=O)OC2C(=O)N(SC(C)CC)C2c2ccccc2Cl)cn3C2CC2)CC1 (stereo not drawn) [Lactam 130],Activity against Enterococcus faecium (growth observed),[1]; 1 μg/ml,G
same,Activity against Enterococcus faecium (growth observed),[1]; 2 μg/ml,G
same,Activity against Enterococcus faecium (growth observed),[1]; 3 μg/ml,G
same,Activity against Enterococcus faecium (growth observed),[1]; 4 μg/ml,G
same,Activity against Enterococcus faecium (growth observed),[1]; 5 μg/ml,G
same,Activity against Enterococcus faecium (growth observed),[1]; 6 μg/ml,G
same,Activity against Enterococcus faecium (growth observed),[1]; 7 μg/ml,G
same,Activity against Enterococcus faecium (growth observed),[1]; 8 μg/ml,G
same,Activity against Enterococcus faecium (growth observed),[1]; 9 μg/ml,G
same,Activity against Enterococcus faecium (growth observed),[1]; 10 μg/ml,G
same,Activity against Enterococcus faecium (growth observed),[1]; 25 μg/ml,G
same,Activity against Staphylococcus aureus (growth observed),[2]; 1 μg/ml,G
same,Activity against Staphylococcus aureus (growth observed),[2]; 2 μg/ml,G
same,Activity against Staphylococcus aureus (growth observed),[2]; 3 μg/ml,G
same,Activity against Staphylococcus aureus (growth observed),[2]; 4 μg/ml,G
same,Activity against Staphylococcus aureus (growth observed),[2]; 5 μg/ml,G
same,Activity against Staphylococcus aureus (growth observed),[2]; 6 μg/ml,G
same,Activity against Staphylococcus aureus (growth observed),[2]; 7 μg/ml,G
same,Activity against Staphylococcus aureus (growth observed),[2]; 8 μg/ml,G
same,Activity against Staphylococcus aureus (growth observed),[2]; 9 μg/ml,G
same,Activity against Staphylococcus aureus (growth observed),[2]; 10 μg/ml,X
same,Activity against Staphylococcus aureus (growth observed),[2]; 25 μg/ml,X
same,MIC,[2]; against S. aureus,10 µg/mL
same,Activity against Klebesiella pneumonia (growth observed),[3]; 1 μg/ml,G
same,Activity against Klebesiella pneumonia (growth observed),[3]; 2 μg/ml,G
same,Activity against Klebesiella pneumonia (growth observed),[3]; 3 μg/ml,G
same,Activity against Klebesiella pneumonia (growth observed),[3]; 4 μg/ml,G
same,Activity against Klebesiella pneumonia (growth observed),[3]; 5 μg/ml,G
same,Activity against Klebesiella pneumonia (growth observed),[3]; 6 μg/ml,G
same,Activity against Klebesiella pneumonia (growth observed),[3]; 7 μg/ml,G
same,Activity against Klebesiella pneumonia (growth observed),[3]; 8 μg/ml,G
same,Activity against Klebesiella pneumonia (growth observed),[3]; 9 μg/ml,G
same,Activity against Klebesiella pneumonia (growth observed),[3]; 10 μg/ml,G
same,Activity against Klebesiella pneumonia (growth observed),[3]; 25 μg/ml,G
same,Activity against Acinetobacter baumannii (growth observed),[4]; 1 μg/ml,G
same,Activity against Acinetobacter baumannii (growth observed),[4]; 2 μg/ml,G
same,Activity against Acinetobacter baumannii (growth observed),[4]; 3 μg/ml,G
same,Activity against Acinetobacter baumannii (growth observed),[4]; 4 μg/ml,G
same,Activity against Acinetobacter baumannii (growth observed),[4]; 5 μg/ml,G
same,Activity against Acinetobacter baumannii (growth observed),[4]; 6 μg/ml,G
same,Activity against Acinetobacter baumannii (growth observed),[4]; 7 μg/ml,G
same,Activity against Acinetobacter baumannii (growth observed),[4]; 8 μg/ml,G
same,Activity against Acinetobacter baumannii (growth observed),[4]; 9 μg/ml,G
same,Activity against Acinetobacter baumannii (growth observed),[4]; 10 μg/ml,G
same,Activity against Acinetobacter baumannii (growth observed),[4]; 25 μg/ml,G
same,Activity against Pseudomonas aeruginosa (growth observed),[5]; 1 μg/ml,G
same,Activity against Pseudomonas aeruginosa (growth observed),[5]; 2 μg/ml,G
same,Activity against Pseudomonas aeruginosa (growth observed),[5]; 3 μg/ml,G
same,Activity against Pseudomonas aeruginosa (growth observed),[5]; 4 μg/ml,G
same,Activity against Pseudomonas aeruginosa (growth observed),[5]; 5 μg/ml,G
same,Activity against Pseudomonas aeruginosa (growth observed),[5]; 6 μg/ml,G
same,Activity against Pseudomonas aeruginosa (growth observed),[5]; 7 μg/ml,G
same,Activity against Pseudomonas aeruginosa (growth observed),[5]; 8 μg/ml,G
same,Activity against Pseudomonas aeruginosa (growth observed),[5]; 9 μg/ml,G
same,Activity against Pseudomonas aeruginosa (growth observed),[5]; 10 μg/ml,G
same,Activity against Pseudomonas aeruginosa (growth observed),[5]; 25 μg/ml,G
